Experimental data as given in ChEMBL document CHEMBL5143638, “Natural aloe emodin-hybridized sulfonamide aminophosphates as novel potential membrane-perturbing and DNA-intercalating agents against Enterococcus faecalis” (Bioorg Med Chem Lett, 2022).
≈ marks a conversion by molar mass, not a printed value.

Experiments:
Format in all cases: functional
Escherichia coli [1] = assay: Antibacterial activity against Escherichia coli ATCC 25922 assessed as inhibition of bacterial growth measured after 24 hrs by CLSI based broth microdilution method
Staphylococcus aureus [2] = assay: Antibacterial activity against Staphylococcus aureus assessed as inhibition of bacterial growth measured after 24 hrs by CLSI based broth microdilution method
Acinetobacter baumannii = assay: Antibacterial activity against Acinetobacter baumannii assessed as inhibition of bacterial growth measured after 24 hrs by CLSI based broth microdilution method
Staphylococcus aureus [3] = assay: Antibacterial activity against methicillin-resistant Staphylococcus aureus N315 assessed as inhibition of bacterial growth measured after 24 hrs by CLSI based broth microdilution method
Staphylococcus aureus [4] = assay: Antibacterial activity against Staphylococcus aureus ATCC 25923 assessed as inhibition of bacterial growth measured after 24 hrs by CLSI based broth microdilution method
Enterococcus faecalis = assay: Antibacterial activity against Enterococcus faecalis assessed as inhibition of bacterial growth measured after 24 hrs by CLSI based broth microdilution method
Escherichia coli [5] = assay: Antibacterial activity against Escherichia coli assessed as inhibition of bacterial growth measured after 24 hrs by CLSI based broth microdilution method
Pseudomonas aeruginosa [6] = assay: Antibacterial activity against Pseudomonas aeruginosa ATCC 27853 assessed as inhibition of bacterial growth measured after 24 hrs by CLSI based broth microdilution method
Klebsiella pneumoniae [7] = assay: Antibacterial activity against Klebsiella pneumoniae assessed as inhibition of bacterial growth measured after 24 hrs by CLSI based broth microdilution method
Pseudomonas aeruginosa [8] = assay: Antibacterial activity against Pseudomonas aeruginosa assessed as inhibition of bacterial growth measured after 24 hrs by CLSI based broth microdilution method
Klebsiella pneumoniae [9] = assay: Potency index, ratio of aloe emodin MIC to test compound MIC for antibacterial activity against Klebsiella pneumoniae assessed as inhibition of bacterial growth measured after 24 hrs by CLSI based broth microdilution method
Klebsiella pneumoniae [10] = assay: Potency index, ratio of norfloxacin MIC to test compound MIC for antibacterial activity against Klebsiella pneumoniae assessed as inhibition of bacterial growth measured after 24 hrs by CLSI based broth microdilution method
Staphylococcus aureus [11] = assay: Potency index, ratio of sulfamethoxazole MIC to test compound MIC for antibacterial activity against Staphylococcus aureus assessed as inhibition of bacterial growth measured after 24 hrs by CLSI based broth microdilution method
Staphylococcus aureus [12] = assay: Potency index, ratio of sulfamethoxazole MIC to test compound MIC for antibacterial activity against Staphylococcus aureus ATCC 25923 assessed as inhibition of bacterial growth measured after 24 hrs by CLSI based broth microdilution method
Klebsiella pneumoniae [13] = assay: Potency index, ratio of sulfamethoxazole MIC to test compound MIC for antibacterial activity against Klebsiella pneumoniae assessed as inhibition of bacterial growth measured after 24 hrs by CLSI based broth microdilution method

Row | Compound | MIC (Escherichia coli [1]) [µg/mL] | MIC (Staphylococcus aureus [2]) [µg/mL] | MIC (Acinetobacter baumannii) [µg/mL] | MIC (Staphylococcus aureus [3]) [µg/mL] | MIC (Staphylococcus aureus [4]) [µg/mL] | MIC (Enterococcus faecalis) [µg/mL] | MIC (Escherichia coli [5]) [µg/mL] | MIC (Pseudomonas aeruginosa [6]) [µg/mL] | MIC (Klebsiella pneumoniae [7]) [µg/mL] | MIC (Pseudomonas aeruginosa [8]) [µg/mL] | Ratio (Klebsiella pneumoniae [9]) | Ratio (Klebsiella pneumoniae [10]) | Ratio (Staphylococcus aureus [11]) | Ratio (Staphylococcus aureus [12]) | Ratio (Klebsiella pneumoniae [13])
1 | CC(C)OP(=O)(OC(C)C)C(Nc1ccc(S(=O)(=O)Nc2nccs2)cc1)c1cc(O)c2c(c1)C(=O)c1cccc(O)c1C2=O (stereo not given) | 128 (≈ 191 µM) | 256 (≈ 381 µM) | 256 (≈ 381 µM) | 256 (≈ 381 µM) | 32 (≈ 47.6 µM) | 256 (≈ 381 µM) | 256 (≈ 381 µM) | 128 (≈ 191 µM) | 256 (≈ 381 µM) | 256 (≈ 381 µM) | – | – | – | – | –
2 | Nc1ccc(S(=O)(=O)Nc2nccs2)cc1 [SULFATHIAZOLE] | 64 (≈ 251 µM) | 128 (≈ 501 µM) | 32 (≈ 125 µM) | 128 (≈ 501 µM) | 64 (≈ 251 µM) | 64 (≈ 251 µM) | 64 (≈ 251 µM) | 64 (≈ 251 µM) | 256 (≈ 1000 µM) | 64 (≈ 251 µM) | – | – | – | – | –
3 | Cc1cc(NS(=O)(=O)c2ccc(NC(c3cc(O)c4c(c3)C(=O)c3cccc(O)c3C4=O)P(=O)(OC(C)C)OC(C)C)cc2)no1 (stereo not given) | 64 (≈ 95.6 µM) | 128 (≈ 191 µM) | 0.5 (≈ 0.747 µM) | 128 (≈ 191 µM) | 256 (≈ 382 µM) | 32 (≈ 47.8 µM) | 64 (≈ 95.6 µM) | 8 (≈ 11.9 µM) | 256 (≈ 382 µM) | 32 (≈ 47.8 µM) | – | – | – | – | –
4 | CCOP(=O)(OCC)C(Nc1ccc(S(=O)(=O)Nc2cc(C)on2)cc1)c1cc(O)c2c(c1)C(=O)c1cccc(O)c1C2=O (stereo not given) | 32 (≈ 49.9 µM) | 0.5 (≈ 0.779 µM) | 64 (≈ 99.8 µM) | 64 (≈ 99.8 µM) | 0.5 (≈ 0.779 µM) | 256 (≈ 399 µM) | 64 (≈ 99.8 µM) | 32 (≈ 49.9 µM) | 2 (≈ 3.12 µM) | 32 (≈ 49.9 µM) | 32 | 2 | 16 | 64 | 4
5 | O=C1c2cccc(O)c2C(=O)c2c(O)cc(CO)cc21 [ALOE-EMODIN] | 4 (≈ 14.8 µM) | 64 (≈ 237 µM) | 8 (≈ 29.6 µM) | 16 (≈ 59.2 µM) | 8 (≈ 29.6 µM) | 32 (≈ 118 µM) | 8 (≈ 29.6 µM) | 4 (≈ 14.8 µM) | 64 (≈ 237 µM) | 16 (≈ 59.2 µM) | – | – | – | – | –
6 | NS(=O)(=O)c1ccc(NC(c2cc(O)c3c(c2)C(=O)c2cccc(O)c2C3=O)P(=O)(Oc2ccccc2)Oc2ccccc2)cc1 (stereo not given) | 32 (≈ 48.7 µM) | 64 (≈ 97.5 µM) | 16 (≈ 24.4 µM) | 16 (≈ 24.4 µM) | 256 (≈ 390 µM) | 32 (≈ 48.7 µM) | 64 (≈ 97.5 µM) | 32 (≈ 48.7 µM) | 128 (≈ 195 µM) | 128 (≈ 195 µM) | – | – | – | – | –
7 | COP(=O)(OC)C(Nc1ccc(S(=O)(=O)Nc2onc(C)c2C)cc1)c1cc(O)c2c(c1)C(=O)c1cccc(O)c1C2=O (stereo not given) | 0.5 (≈ 0.797 µM) | 2 (≈ 3.19 µM) | 4 (≈ 6.37 µM) | 2 (≈ 3.19 µM) | 8 (≈ 12.7 µM) | 64 (≈ 102 µM) | 128 (≈ 204 µM) | 256 (≈ 408 µM) | 32 (≈ 51 µM) | 8 (≈ 12.7 µM) | – | – | – | – | –
8 | Cc1cc(NS(=O)(=O)c2ccc(N)cc2)no1 [SULFAMETHOXAZOLE] | 4 (≈ 15.8 µM) | 8 (≈ 31.6 µM) | 4 (≈ 15.8 µM) | 4 (≈ 15.8 µM) | 32 (≈ 126 µM) | 16 (≈ 63.2 µM) | 64 (≈ 253 µM) | 2 (≈ 7.9 µM) | 8 (≈ 31.6 µM) | 4 (≈ 15.8 µM) | – | – | – | – | –
9 | CCOP(=O)(OCC)C(Nc1ccc(S(=O)(=O)Nc2onc(C)c2C)cc1)c1cc(O)c2c(c1)C(=O)c1cccc(O)c1C2=O (stereo not given) | 256 (≈ 390 µM) | 256 (≈ 390 µM) | 256 (≈ 390 µM) | 16 (≈ 24.4 µM) | 256 (≈ 390 µM) | 256 (≈ 390 µM) | 256 (≈ 390 µM) | 256 (≈ 390 µM) | 256 (≈ 390 µM) | 256 (≈ 390 µM) | – | – | – | – | –
10 | Cc1noc(NS(=O)(=O)c2ccc(NC(c3cc(O)c4c(c3)C(=O)c3cccc(O)c3C4=O)P(=O)(OC(C)C)OC(C)C)cc2)c1C (stereo not given) | 0.5 (≈ 0.731 µM) | 2 (≈ 2.93 µM) | 2 (≈ 2.93 µM) | 0.25 (≈ 0.366 µM) | 2 (≈ 2.93 µM) | 64 (≈ 93.6 µM) | 64 (≈ 93.6 µM) | 256 (≈ 374 µM) | 2 (≈ 2.93 µM) | 2 (≈ 2.93 µM) | – | – | – | – | –
11 | Nc1ccc(S(N)(=O)=O)cc1 [SULFANILAMIDE] | 4 (≈ 23.2 µM) | 128 (≈ 743 µM) | 4 (≈ 23.2 µM) | 256 (≈ 1490 µM) | 256 (≈ 1490 µM) | 128 (≈ 743 µM) | 64 (≈ 372 µM) | 2 (≈ 11.6 µM) | 8 (≈ 46.5 µM) | 4 (≈ 23.2 µM) | – | – | – | – | –
12 | CCCCOP(=O)(OCCCC)C(Nc1ccc(S(N)(=O)=O)cc1)c1cc(O)c2c(c1)C(=O)c1cccc(O)c1C2=O (stereo not given) | 256 (≈ 415 µM) | 256 (≈ 415 µM) | 256 (≈ 415 µM) | 64 (≈ 104 µM) | 256 (≈ 415 µM) | 128 (≈ 208 µM) | 256 (≈ 415 µM) | 256 (≈ 415 µM) | 256 (≈ 415 µM) | 256 (≈ 415 µM) | – | – | – | – | –
